Source: patent US20250250245A1, “TRIMETAZIDINE SALTS” (LES LABORATOIRES SERVIER, priority 2021, published 2025)
Structures can show the parent of a compound that is named as a salt.

Test: Trimetazidine nitrosamine formation in aqueous sodium nitrite solution (LC/MS dosage)
Assay type: physicochemical
Details: 6 mg/mL in trimetazidine equivalent (low solubility), 40° C. for 22 hours
Procedure: In order to model the formation of trimetazidine nitrosamine during the formulation process, an aqueous solution of sodium nitrite was added to the trimetazidine salt. The sodium nitrite mimics the presence of nitrites in water and/or excipients during a drug product manufacturing process.
The trimetazidine salt, in an amount corresponding to 600 mg trimetazidine, was placed in 2 mL volumetric flask. […]
The solution was stirred at 40° C. for 22 hours. The trimetazidine nitrosamine dosage was performed by LC/MS.
In the case of COc1ccc(CN2CCNCC2)c(OC)c1OC.O=C(O)C(=O)O.O=C(O)C(=O)O [Comparative Example D], the Trimetazidine nitrosamine content is reported as 83.1 ppm.

Same assay, conditions: 30 mg/mL in trimetazidine equivalent (low solubility), 40° C. for 22 hours
In the case of COc1ccc(CN2CCNCC2)c(OC)c1OC.O=C(O)C(=O)O [Comparative Example C], the Trimetazidine nitrosamine content is reported as 104.0 ppm.

Same assay, conditions: 300 mg/mL in trimetazidine equivalent, stirred at 40° C. for 22 hours
COc1ccc(CN2CCNCC2)c(OC)c1OC.COc1ccc(CN2CCNCC2)c(OC)c1OC.O=C(O)CCCCC(=O)O [Example 1, Trimetazidine Hemiadipate] gave a Trimetazidine nitrosamine content of 0.7 ppm.
Work on Trimetazidine Hemiphosphate [Example 7] yielded a Trimetazidine nitrosamine content of 0.6 ppm.
For COc1ccc(CN2CCNCC2)c(OC)c1OC [Comparative Example A, Trimetazidine dihydrochloride], the Trimetazidine nitrosamine content was 126.0 ppm.
For COc1ccc(CN2CCNCC2)c(OC)c1OC.O=C(O)C=CC(=O)O [Comparative Example F], the Trimetazidine nitrosamine content was 121.2 ppm.
With Trimetazidine Hemimalate [Example 3] the Trimetazidine nitrosamine content was 0.7 ppm.
“trimetazidine hemioxalate [Comparative Example B]” gave a Trimetazidine nitrosamine content of 1.1 ppm.
In the case of Trimetazidine Hemifumarate [Example 5], the Trimetazidine nitrosamine content is reported as 0.1 ppm.
With COc1ccc(CN2CCNCC2)c(OC)c1OC.Cl.Cl [Comparative Example E] the Trimetazidine nitrosamine content was 22.0 ppm.
With COc1ccc(CN2CCNCC2)c(OC)c1OC.O=C(O)C=CC(=O)O [Comparative Example G] the Trimetazidine nitrosamine content was 31.9 ppm.
For Trimetazidine Hemitartrate [Example 6], the Trimetazidine nitrosamine content was 0.6 ppm.
In the case of Trimetazidine Hemisuccinate [Example 2], the Trimetazidine nitrosamine content is reported as 0.5 ppm.
For Trimetazidine Hemisulfate [Example 4], the Trimetazidine nitrosamine content was 0.6 ppm.

Test: Solubility of the trimetazidine salts in the aqueous test solution
Assay type: physicochemical
Details: 300 mg/mL in trimetazidine equivalent not used
With COc1ccc(CN2CCNCC2)c(OC)c1OC.O=C(O)C(=O)O.O=C(O)C(=O)O [Comparative Example D] the Solubility was “low solubilities”.
With COc1ccc(CN2CCNCC2)c(OC)c1OC.O=C(O)C(=O)O [Comparative Example C] the Solubility was “low solubilities”.
